Data: patent US20140179521A1, “COMPOSITIONS INCORPORATING HYTd” (Agrinos AS, priority 2012, published 2014)

What was measured:
Assay type in all cases: in vivo
Mildew = assay: Small grain cereal replicated field experiments, mildew level / disease control; details: small grain cereals
Streptomyces scabies = assay: Potato field experiment, expression of Streptomyces scabies; details: potato Maris Piper, field plots, treatment applied at planting
Rhizoctonia solani = assay: Potato field experiment, expression of Rhizoctonia solani
[1] = test system: potato variety Maris Piper; assay: Potato field experiment, tuber yield
small grain cereals = assay: Small grain cereal replicated field experiments, grain yield; details: applied topically at growth stage 37
[2] = potato Maris Piper, field plots, treatment applied at planting
[3] = potatoes, in-furrow application, field observations

## CO/C=C(/C(=O)OC)c1ccccc1Oc1cc(Oc2ccccc2C#N)ncn1 [azoxystrobin]
Mildew
  disease control / period of disease suppression (in words): significant levels of disease control
Mildew; 7 days after treatment
  Mildew level 7 days after treatment: 4%
Mildew; 21 days after treatment
  Mildew level 21 days after treatment: 11%
Streptomyces scabies
  S. scabies: 46%
Rhizoctonia solani; [2]
  R. solani: 2%
Rhizoctonia solani; [3]
  control of Rhizoctonia (in words): high level disease control
[1]; [2]
  Yield t/ha: 62.17 t/ha
[1]; [3]
  effect on yield (in words): little direct yield increase
Small grain cereals
  Yield t/ha: 10.44 t/ha
